Results: US4501892A, “Pyridyl benzenediols” (The Upjohn Company, priority 1982, dated 1985)

Molecular target: T1, TXA2 synthetase (Homo sapiens, UniProt P24557)
T1 construct: human platelet microsomes (HPM); from tissue; host or cells: human platelet microsomes
T1 sequence (P24557 1-533): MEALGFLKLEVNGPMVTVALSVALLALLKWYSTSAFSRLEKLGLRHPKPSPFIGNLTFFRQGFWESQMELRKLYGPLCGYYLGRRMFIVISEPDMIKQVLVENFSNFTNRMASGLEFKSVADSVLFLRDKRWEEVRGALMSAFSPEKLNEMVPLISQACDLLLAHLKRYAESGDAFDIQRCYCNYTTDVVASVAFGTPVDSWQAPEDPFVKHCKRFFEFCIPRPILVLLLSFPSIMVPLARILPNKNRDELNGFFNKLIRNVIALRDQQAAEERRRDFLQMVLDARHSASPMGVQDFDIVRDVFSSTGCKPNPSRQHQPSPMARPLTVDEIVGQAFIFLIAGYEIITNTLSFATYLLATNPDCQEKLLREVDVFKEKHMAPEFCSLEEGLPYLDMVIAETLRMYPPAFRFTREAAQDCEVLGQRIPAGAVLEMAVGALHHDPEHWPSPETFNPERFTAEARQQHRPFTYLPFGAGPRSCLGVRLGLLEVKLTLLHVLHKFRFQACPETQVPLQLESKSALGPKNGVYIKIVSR
Experiment: TXA2 inhibition test: PGH2 mixed with human platelet microsomes (HPM), TXA2 measured by response of superfused rabbit aortic strips
Format: biochemical
Details: rabbit aorta response; for effectiveness in inhibiting TXA2 formation (in words): PGH2 + human platelet microsomes
Description: The compounds of the present invention were tested for TXA2 inhibition as follows:
Rabbit aortic strips were superfused in series with Krebs solution. Thromboxane A2 (TXA2) was generated by mixing prostaglandin H2 (PGH2) with human platelet microsomes (HPM).
Potential inhibitors were tested by comparing the response of the rabbit aorta to the amount of TXA2 produced by mixing PGH2 and HPM without the test compound in the reaction medium and then the amount of TXA2 produced when the test compound was added to the HPM 5 minutes before the HPM was mixed with PGH2. […] For a discussion of TXA2 synthetase inhibition testing see, e.g., R. Gorman, supra.

“2,3-Dihydro-7-(and 6-)(3-pyridinylmethyl)-1,4-benzodioxin-2-carboxylic acid, sodium salt” was tested, and the “effectiveness in inhibiting TXA2 formation (in words)” value was “most effective”.

With `COC(=O)C1Oc2ccc(Cc3cccnc3)cc2O1` (racemic) [Example 1, dl-4-(3-Pyridinylmethyl)-1,2-benzenediol, methyl glyoxylate acetal] the “effectiveness in inhibiting TXA2 formation (in words)” value was “most effective” and the IC50 (test compound added to HPM 5 minutes before mixing with PGH2, read-out: approximate ED50 (inhibition of TXA2 formation) (converted)) was about 369 nM.
